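Briefly, cells in 96-well plates were exposed to five compound concentrations for 48 h, and endpoints were estimated by linear interpolation. GI50 = concentration required for 50% inhibition of growth.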 Active and inactive are the calls of the source. Rule as the data show it: active = GI50 up to about 1.1 µM and inactive = higher.

Among the test systems are KM-20L2; DMS-273; DMS-114; HOP-18; LXFL 529; DLD-1; SNB-78; XF498; RXF 631.
What all share (assay): growth of human tumour cells (NCI), 48 h

On to `Oc1ccc2ccccc2c1/N=N/c1ccc(F)cc1`, for which the GI50 in the assay with KM-20L2, in the assay on DMS-273, with DMS-114, in the assay on HOP-18 and in the assay with LXFL 529 was > 100 µM (inactive) throughout.
Take `CN(Cc1cnc2nc(N)nc(N)c2n1)c1ccc(C(=O)NC(CCC(=O)O)C(=O)O)c2ccccc12` (stereo unspecified): the GI50 in the assay with DLD-1 is 0.01 µM (active); in the assay with SNB-78, > 65 µM (inactive); in the assay on KM-20L2 it was 0.01 µM (active); in the assay on DMS-273, 0.01 µM (active); in the assay on XF498, > 100 µM (inactive); in the assay on DMS-114, 0.000847 µM (active). Also, the GI50 with HOP-18 was > 100 µM (inactive); in the assay with LXFL 529, 0.00135 µM (active).
With `N#CC1CC(c2ccccc2)Nc2cc(Cl)ccc2N1` (stereo unspecified), the GI50 in the assay with DLD-1 was 28.9 µM (inactive); with SNB-78, 50.7 µM (inactive); in the assay with KM-20L2, 43.7 µM (inactive); with DMS-273, 31.2 µM (inactive); in the assay on XF498, 29.7 µM (inactive); in the assay on DMS-114, 5.78 µM (inactive). The figures for the GI50 in the assay on HOP-18 and in the assay with LXFL 529 were > 87.1 µM (inactive) and 21 µM (inactive), respectively.
For `Cc1c2cc[n+](CCN3CCCCC3)cc2c(C)c2c1[nH]c1ccc(O)cc12`, the GI50 was 4.6 µM (inactive) in the assay on DLD-1; 3.75 µM (inactive) in the assay with SNB-78; 6.43 µM (inactive) in the assay with KM-20L2; 1.72 µM (inactive) with DMS-273; 1.51 µM (inactive) with DMS-114; 13.1 µM (inactive) in the assay on HOP-18.
Consider `C=CCC12CCC(=O)C=C1CCC1(C2)OCCO1` (stereo unspecified), for which the GI50 with DLD-1, with SNB-78, in the assay on KM-20L2, with DMS-273, in the assay on DMS-114 and with HOP-18 was > 100 µM (inactive) throughout. The GI50 in the assay with LXFL 529 and in the assay on RXF 631 was > 100 µM (inactive) throughout.
Consider `CCOP(=O)(OCC)OC(C#N)c1ccc(-c2ccccc2)cc1` (stereo unspecified), for which the GI50 was 18.4 µM (inactive) in the assay with DLD-1; 33 µM (inactive) with SNB-78; 41.3 µM (inactive) with KM-20L2; 14.4 µM (inactive) in the assay with DMS-273; 23.9 µM (inactive) in the assay on XF498; 15 µM (inactive) with DMS-114. For the same molecule, the GI50 is 27.7 µM (inactive) in the assay with HOP-18 and 17.8 µM (inactive) in the assay with LXFL 529.
Consider `COC(=O)C12CCC(CC1=O)C2(C)C` (stereo unspecified), for which the GI50 is > 100 µM (inactive) with DLD-1; > 100 µM (inactive) in the assay on KM-20L2; > 100 µM (inactive) in the assay with DMS-273; > 100 µM (inactive) in the assay on XF498; 99.5 µM (inactive) with DMS-114; > 100 µM (inactive) in the assay with HOP-18.
Regarding `c1ccc(SC2(Sc3ccccc3)CCCC2)cc1`, the GI50 in the assay on DLD-1, in the assay with SNB-78, in the assay on KM-20L2, in the assay with DMS-273, with XF498 and in the assay on DMS-114 was > 100 µM (inactive) in each case. The GI50 in the assay on RXF 631 was > 100 µM (inactive).
In the case of `CC1=C(C(=O)O)N2C(=O)[C@@H](NC(=O)C(c3ccccc3)N3CSC(=S)N(C(C)C)C3)C2SC1` (stereo partly specified), the GI50 in the assay with DLD-1, in the assay with SNB-78, in the assay on KM-20L2, in the assay with DMS-273, in the assay on XF498 and with HOP-18 was > 100 µM (inactive) in each case. Further, in the assay with LXFL 529, the GI50 was > 100 µM (inactive).
As to `CC(C)(C)C(=O)C1CC(=O)c2ccccc2C1=O` (stereo unspecified), the GI50 was 30.4 µM (inactive) with DLD-1; 27.5 µM (inactive) in the assay with SNB-78; 38 µM (inactive) in the assay with KM-20L2; 34.4 µM (inactive) in the assay on XF498; 33.9 µM (inactive) with DMS-114; 37.5 µM (inactive) in the assay with HOP-18. Moreover, the GI50 in the assay on RXF 631 is 36.7 µM (inactive).
`N#CC(C#N)c1ccc(C(=O)N2CCC[C@H]2CO)cc1`: the GI50 in the assay with DLD-1, with KM-20L2, in the assay with DMS-273, in the assay with DMS-114, with HOP-18 and with LXFL 529 was > 100 µM (inactive) each time. The GI50 in the assay with RXF 631 was > 100 µM (inactive).
In the case of `C#CCC(O)c1ccccc1C(O)CC#C` (stereo unspecified), the GI50 was > 100 µM (inactive) with DLD-1; 77.8 µM (inactive) in the assay with SNB-78; > 100 µM (inactive) in the assay with KM-20L2; > 100 µM (inactive) with DMS-273; > 100 µM (inactive) in the assay with DMS-114; > 100 µM (inactive) in the assay on LXFL 529.
For the molecule `N#Cc1cc([N+](=O)[O-])ccc1NC(=O)C(=O)C(C(=O)/C=C/c1ccccc1)C1OC(=O)c2ccccc21` (stereo unspecified), the GI50 in the assay on DLD-1, in the assay on SNB-78, in the assay with KM-20L2, in the assay on XF498, in the assay on DMS-114 and in the assay with HOP-18 was > 100 µM (inactive) each time. The GI50 in the assay on LXFL 529 and in the assay with RXF 631 was > 100 µM (inactive) in each case.
Take `COc1cc2ccc3c4ccccc4cnc3c2cc1OC`: the GI50 in the assay with DLD-1, in the assay with SNB-78, in the assay with KM-20L2, in the assay on HOP-18, in the assay with LXFL 529 and with RXF 631 was > 100 µM (inactive) in each case.
Regarding `C/C(=N/NC(=O)C[N+](C)(C)C)C(CN(C)C)C(=O)Nc1ccccc1` (stereo unspecified), the GI50 in the assay with DLD-1, with KM-20L2, with DMS-273, in the assay with XF498, in the assay on DMS-114 and with HOP-18 was > 100 µM (inactive) in each case. Besides, in the assay with LXFL 529, the GI50 was > 100 µM (inactive).
`Cc1cc(C)nc(NS(=O)(=O)c2ccc(Nc3c4ccccc4nc4c(C(=O)Nc5ccc(S(=O)(=O)N=C(N)N)cc5)cccc34)cc2)n1`: the GI50 in the assay on DLD-1, in the assay on SNB-78, in the assay on KM-20L2, with DMS-273, with DMS-114 and with HOP-18 was > 100 µM (inactive) throughout. Further, the GI50 in the assay on RXF 631 was > 100 µM (inactive).
Turning to `O=c1cccccc1NCCCCCCCCCNc1cccccc1=O`, the GI50 with DLD-1 was 10.8 µM (inactive); in the assay with SNB-78, 17.1 µM (inactive); in the assay with KM-20L2, 19.6 µM (inactive); with DMS-273 it was 12.5 µM (inactive); in the assay on XF498 it was 7.36 µM (inactive); with DMS-114, 1.35 µM (inactive). In addition, the GI50 in the assay on LXFL 529 is 8.97 µM (inactive).
Take `N#CC(C(=O)C(N)=O)c1ccccc1Cl` (stereo unspecified): the GI50 in the assay on DLD-1, in the assay on KM-20L2, in the assay with DMS-273, with XF498, in the assay on DMS-114 and in the assay with HOP-18 was > 100 µM (inactive) throughout. Further, the GI50 in the assay on LXFL 529 and in the assay with RXF 631 was > 100 µM (inactive) in each case.
Take `O=C1C(=O)N(c2ccc(Cl)cc2)C(=O)C(=O)C1c1nc2ccccc2s1`: the GI50 in the assay with SNB-78, in the assay on KM-20L2, with DMS-273, in the assay on XF498, in the assay on DMS-114 and in the assay on HOP-18 was > 100 µM (inactive) in each case. For the same molecule, the GI50 in the assay on LXFL 529 was > 100 µM (inactive).
On to `COCCN1C2=CCCCC2=Nc2c1nc(N)[nH]c2=O`, for which the GI50 in the assay on DLD-1, in the assay on SNB-78, in the assay on KM-20L2, in the assay on DMS-273, in the assay on XF498 and in the assay with DMS-114 was > 100 µM (inactive) each time. The GI50 in the assay with HOP-18, in the assay on LXFL 529 and in the assay with RXF 631 was > 100 µM (inactive) each time.
As to `CC1(C)COC(c2cccnc2/C=N/O)=N1`, the GI50 in the assay with DLD-1, in the assay on SNB-78, in the assay on KM-20L2, in the assay with DMS-273, in the assay on XF498 and with HOP-18 was > 100 µM (inactive) each time. The GI50 in the assay on LXFL 529 and in the assay with RXF 631 was > 100 µM (inactive) each time.
With `Cc1cc(N(CCC#N)CCC#N)ccc1/C=C1N=C(/C=C\c2ccccc2)N(NC(=O)CC(=O)Nc2ccccc2Cl)C\1=O`, the GI50 in the assay on DLD-1, in the assay on KM-20L2, with DMS-114, with HOP-18, in the assay with LXFL 529 and with RXF 631 was > 100 µM (inactive) in each case.
As for `CCCC1N2CCCCC2[C@@H]2c3[nH]c4ccccc4c3CCN12` (stereo partly specified), the GI50 in the assay on DLD-1 was > 100 µM (inactive); with SNB-78, 53.8 µM (inactive); in the assay with KM-20L2 it was > 100 µM (inactive); in the assay on DMS-273, > 100 µM (inactive); in the assay with XF498, > 100 µM (inactive); in the assay on DMS-114, > 100 µM (inactive). Further, the GI50 in the assay with HOP-18 and in the assay with LXFL 529 was > 100 µM (inactive) throughout.
Take `O=C(O)[C@@H]1OCCOCCO[C@@H](C(=O)O)[C@H](C(=O)O)OCCOCCO[C@H]1C(=O)O`: the GI50 in the assay with DLD-1 was > 42.1 µM (inactive); in the assay with SNB-78 it was > 100 µM (inactive); in the assay on KM-20L2, > 100 µM (inactive); with DMS-273 it was > 100 µM (inactive); in the assay with XF498, > 30.3 µM (inactive); in the assay with DMS-114 it was > 50.8 µM (inactive). The GI50 with HOP-18 and in the assay on LXFL 529 was > 100 µM (inactive) throughout.
Turning to `CCC(C)(C)C(=O)O[C@H]1C[C@@H](C)C=C2C=C[C@H](C)[C@H](CC[C@@H]3C[C@@H](O)CC(=O)O3)[C@H]21` [SIMVASTATIN], the GI50 is > 30 µM (inactive) in the assay on DLD-1; > 30 µM (inactive) in the assay on SNB-78; 12.3 µM (inactive) in the assay on KM-20L2; 2.88 µM (inactive) with DMS-273; > 30 µM (inactive) with XF498; 23.7 µM (inactive) with DMS-114. Further, the GI50 in the assay on HOP-18 was > 30 µM (inactive); in the assay on LXFL 529, 6.67 µM (inactive); in the assay with RXF 631, 0.55 µM (active).

These data come from ChEMBL document CHEMBL1201862, “PubChem BioAssay data set” (2004).
